A short description of data set [1]: Metabolic stability in rat hepatocytes (rHep). Conditions: n = 1 or geometric mean of n = 2-3.
Data set [2] deals with Prolyl endopeptidase, Prolyl Oligopeptidase (hPREP) (Homo sapiens (Human), UniProt P48147). The data set can be described thus: hPrep inhibition assay. The format is biochemical. Conditions: hPREP 0.6 nM, Z-Gly-Pro-amino-methylcoumarin 50 μM; read-out: PREP IC50. On the procedure:
Compounds were tested in a biochemical inhibition assay using Prolyl endopeptidase, Prolyl Oligopeptidase (hPREP) enzyme at 0.6 nM FAC (R&D Systems, 4308-SE) and the substrate Z-Gly-Pro-amino-methylcoumarin (Bachem, I-1145) at 50 μM FAC. 384 Low volume black plates (Greiner #784076) were used. […] Plates were incubated for 15 min at rt in dark. 4 μL, 100 μM substrate solution (25 mM Tris HCl, 250 mM NaCl, 0.01% Triton X-100, 5 mM Glutathione, pH 7.5) was added to each well. Plates were centrifuged at 1000 rpm and incubated for 20 min at rt in dark. The plates were read on a PHERAstar® reader with excitation 340 nm and emission 460 nm. Data were analyzed in Genedata Screener®. IC50 values were determined by plotting % inhibition versus log compound concentration and using a one site dose response model.

Data set [3] addresses human Fibroblast activation protein alpha (hFAP) (Homo sapiens (Human), UniProt Q12884). The data set can be described thus: hFAP inhibition assay (tight binders). Also: hFAP 2.4 pM. The format is biochemical. Conditions: Ala-Pro-AMC 20 μM, n = 1 or geometric mean n = 2-6. On the procedure: The plates were read on a PHERAstar® reader with excitation 340 nm and emission 460 nm. Data were analyzed in Genedata Screener®. IC50 values were determined by plotting % inhibition versus log compound concentration and using a one site dose response model.

In the next data set the target is hFAP (M39-A757) (Homo sapiens (Human), UniProt Q12884). The data set can be described thus: hFAP binding assay (surface plasmon resonance). Particulars: SPR, 20° C.; for hFAP Binding assay k(off) / hFAP Binding assay k(on): single cycle kinetics; for Kd: n = 1 or geometric mean n = 2-4.
A short description of a further data set: Kinetic solubility. Conditions: kinetic from dmso stock, Solubility, kinetic solubility; n = 1 or average of n = 2-3.
The nature of data set [4]: Metabolic stability in human liver microsomes (HLM). Conditions: human, HLM CLint, n = 1 or average of n = 2-3.
Description: Metabolic stability in HLM was measured as described in J Comput Aided Mol Des 2015, 29, 795.

Converted amounts (≈) assume the structure as drawn.

Chain of Prolyl endopeptidase, Prolyl Oligopeptidase (hPREP) (P48147 whole entry): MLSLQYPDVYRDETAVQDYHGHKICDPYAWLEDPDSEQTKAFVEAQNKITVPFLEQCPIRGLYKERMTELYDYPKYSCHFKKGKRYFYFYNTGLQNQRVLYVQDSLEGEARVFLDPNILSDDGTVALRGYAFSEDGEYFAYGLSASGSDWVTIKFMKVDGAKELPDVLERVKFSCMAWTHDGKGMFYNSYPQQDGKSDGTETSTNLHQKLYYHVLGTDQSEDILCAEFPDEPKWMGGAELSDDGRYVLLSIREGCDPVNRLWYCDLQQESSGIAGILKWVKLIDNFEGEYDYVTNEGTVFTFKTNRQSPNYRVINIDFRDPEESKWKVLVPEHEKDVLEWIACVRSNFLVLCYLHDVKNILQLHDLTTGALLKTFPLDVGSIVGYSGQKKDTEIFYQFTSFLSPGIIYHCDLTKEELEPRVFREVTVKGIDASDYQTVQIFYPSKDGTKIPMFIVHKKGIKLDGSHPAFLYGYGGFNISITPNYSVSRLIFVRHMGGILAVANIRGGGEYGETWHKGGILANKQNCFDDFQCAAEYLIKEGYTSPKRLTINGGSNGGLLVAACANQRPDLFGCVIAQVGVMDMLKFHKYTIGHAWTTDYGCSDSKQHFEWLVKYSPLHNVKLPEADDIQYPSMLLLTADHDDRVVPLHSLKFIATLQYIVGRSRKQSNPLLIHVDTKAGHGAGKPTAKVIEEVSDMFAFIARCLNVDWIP
Chain of hFAP (M39-A757) (Q12884 39-757): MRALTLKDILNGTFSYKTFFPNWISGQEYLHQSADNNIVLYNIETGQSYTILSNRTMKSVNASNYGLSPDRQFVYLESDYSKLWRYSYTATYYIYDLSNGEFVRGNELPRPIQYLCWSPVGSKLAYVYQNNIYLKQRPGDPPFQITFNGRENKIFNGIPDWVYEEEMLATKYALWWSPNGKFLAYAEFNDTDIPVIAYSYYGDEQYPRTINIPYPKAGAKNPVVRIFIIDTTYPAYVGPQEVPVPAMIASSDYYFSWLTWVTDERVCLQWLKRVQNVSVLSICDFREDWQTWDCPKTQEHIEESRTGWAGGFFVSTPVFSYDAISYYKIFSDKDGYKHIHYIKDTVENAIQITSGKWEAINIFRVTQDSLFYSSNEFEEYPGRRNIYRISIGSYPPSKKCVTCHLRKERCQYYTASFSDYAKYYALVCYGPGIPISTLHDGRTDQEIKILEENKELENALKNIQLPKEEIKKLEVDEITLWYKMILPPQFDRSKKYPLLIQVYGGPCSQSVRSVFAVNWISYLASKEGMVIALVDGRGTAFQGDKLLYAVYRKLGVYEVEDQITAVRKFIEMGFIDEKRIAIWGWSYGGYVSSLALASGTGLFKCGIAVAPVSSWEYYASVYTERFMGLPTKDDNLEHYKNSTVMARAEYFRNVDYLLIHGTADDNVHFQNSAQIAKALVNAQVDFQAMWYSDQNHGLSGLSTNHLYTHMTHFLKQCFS
Chain of human Fibroblast activation protein alpha (hFAP) (Q12884 38-760): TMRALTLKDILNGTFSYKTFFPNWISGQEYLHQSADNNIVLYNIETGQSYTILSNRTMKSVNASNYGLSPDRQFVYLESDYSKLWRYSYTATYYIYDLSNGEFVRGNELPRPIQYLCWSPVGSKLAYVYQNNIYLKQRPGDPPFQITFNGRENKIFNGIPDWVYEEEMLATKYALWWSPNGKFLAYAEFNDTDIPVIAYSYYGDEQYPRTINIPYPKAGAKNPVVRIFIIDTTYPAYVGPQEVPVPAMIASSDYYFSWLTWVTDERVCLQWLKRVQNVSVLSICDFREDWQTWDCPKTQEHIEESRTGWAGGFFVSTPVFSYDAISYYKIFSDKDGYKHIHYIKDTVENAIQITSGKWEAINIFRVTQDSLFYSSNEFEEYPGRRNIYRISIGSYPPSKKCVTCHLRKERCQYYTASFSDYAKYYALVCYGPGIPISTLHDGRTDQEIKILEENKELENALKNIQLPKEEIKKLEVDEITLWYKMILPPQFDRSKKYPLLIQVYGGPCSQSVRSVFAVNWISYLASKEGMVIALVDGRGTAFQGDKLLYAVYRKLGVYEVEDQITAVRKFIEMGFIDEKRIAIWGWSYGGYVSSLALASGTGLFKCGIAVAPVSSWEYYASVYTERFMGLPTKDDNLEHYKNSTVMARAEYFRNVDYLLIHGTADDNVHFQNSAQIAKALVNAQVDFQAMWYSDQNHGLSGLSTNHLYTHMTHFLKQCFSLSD
Description for Kinetic solubility: Kinetic solubility was measured as described in Comput Aided Mol Des 2015, 29, 795.

In the case of `CC(C)OC1CCN(c2ccc3nccc(C(=O)NCC(=O)N4CSC[C@H]4C#N)c3c2)CC1` [Example 43, (R)—N-(2-(4-Cyanothiazolidin-3-yl)-2-oxoethyl)-6-(4-isopropoxypiperidin-1-yl)quinoline-4-carboxamide], the “rHep CLint” value in data set [1] was 9.1 μL/min/1E6. The IC50 in data set [2] worked out at 1000 nM. In data set [3], this compound returned an IC50 of 0.045 nM. Moreover, on hFAP (M39-A757), the “hFAP Binding assay k(off)” value was 0.000019 s⁻¹, the “hFAP Binding assay k(on)” value was 3200000 M⁻¹ s⁻¹ and the Kd stood at 0.0061 nM. The solubility in the data set “Kinetic solubility” was 52 µM (≈ 24.3 µg/mL). The microsomal CLint in data set [4] came to 36 µL/min/mg.

`COC1CN(c2ccc3nccc(C(=O)NCC(=O)N4CSC[C@H]4C#N)c3c2)C1` [Example 66, (R)—N-(2-(4-Cyanothiazolidin-3-yl)-2-oxoethyl)-6-(3-methoxyazetidin-1-yl)quinoline-4-carboxamide]: in data set [1], the “rHep CLint” value is given as below 1 μL/min/1E6. The IC50 in data set [2] amounted to 490 nM. The compound further came in with an IC50 in data set [3] of 0.077 nM. Further, on hFAP (M39-A757), the “hFAP Binding assay k(off)” value was determined as 0.00022 s⁻¹, the “hFAP Binding assay k(on)” value turned out to be 26000000 M⁻¹ s⁻¹ and binding was put at a Kd of 0.035 nM. The compound also displayed a solubility in the data set “Kinetic solubility” of 210 µM (≈ 86.4 µg/mL). Besides, the microsomal CLint in data set [4] was below 3 µL/min/mg.

On to `N#C[C@@H]1CSCN1C(=O)CNC(=O)c1ccnc2ccc(N3CCO[C@@H](C(F)(F)F)C3)cc12` [Example 73, N-(2-((R)-4-Cyanothiazolidin-3-yl)-2-oxoethyl)-6-((R)-2-(trifluoromethyl)-morpholino)quinoline-4-carboxamide], for which the “rHep CLint” value in data set [1] is given as 11 μL/min/1E6. Moreover, the IC50 in data set [2] stood at 1800 nM. Moreover, in data set [3], the IC50 was found to be 0.13 nM. Moreover, at hFAP (M39-A757), the “hFAP Binding assay k(off)” value was found to be 0.00016 s⁻¹, the “hFAP Binding assay k(on)” value was found to be 2400000 M⁻¹ s⁻¹ and binding was put at a Kd of 0.066 nM. Besides, the concentration in solution in “Kinetic solubility” (solubility) came to 310 µM (≈ 149 µg/mL). Further, in data set [4], the microsomal CLint came out at 32 µL/min/mg.

Consider `COCC[C@@H]1COCCN1c1ccc2nccc(C(=O)NCC(=O)N3CSC[C@H]3C#N)c2c1` [Example 95, N-(2-((R)-4-Cyanothiazolidin-3-yl)-2-oxoethyl)-6-((R)-3-(2-methoxyethyl)-morpholino)quinoline-4-carboxamide], for which the “rHep CLint” value in data set [1] is reported as 13 μL/min/1E6. Also, in data set [2], the IC50 came out at 740 nM. In data set [3], the IC50 was determined as 0.16 nM. At hFAP (M39-A757), the “hFAP Binding assay k(off)” value was 0.000056 s⁻¹, the “hFAP Binding assay k(on)” value turned out to be 2900000 M⁻¹ s⁻¹ and the Kd stood at 0.024 nM. Besides, the solubility in “Kinetic solubility” came to 960 µM (≈ 451 µg/mL). The microsomal CLint in data set [4] was 63 µL/min/mg.

In the case of `COC[C@H]1[C@H](C)OCCN1c1ccc2nccc(C(=O)NCC(=O)N3CSC[C@H]3C#N)c2c1` [Example 96, N-(2-((R)-4-Cyanothiazolidin-3-yl)-2-oxoethyl)-6-((2S,3S)-3-(methoxymethyl)-2-methylmorpholino)quinoline-4-carboxamide], the “rHep CLint” value in data set [1] is given as 15 μL/min/1E6. Also, the IC50 in data set [2] came to 880 nM. Also, the IC50 in data set [3] was found to be 0.17 nM. Also, on hFAP (M39-A757), the “hFAP Binding assay k(off)” value was found to be 0.00022 s⁻¹, the “hFAP Binding assay k(on)” value turned out to be 4000000 M⁻¹ s⁻¹ and the Kd amounted to 0.067 nM. The solubility in the data set “Kinetic solubility” is above 1000 µM. Moreover, the microsomal CLint in data set [4] came out at 71 µL/min/mg.

Take `N#C[C@@H]1CSCN1C(=O)CNC(=O)c1ccnc2ccc(-n3ncc4c3CCCC4)cc12` [Example 114, (R)—N-(2-(4-Cyanothiazolidin-3-yl)-2-oxoethyl)-6-(4,5,6,7-tetrahydro-1H-indazol-1-yl)quinoline-4-carboxamide]: the “rHep CLint” value in data set [1] was determined as 36 μL/min/1E6. Also, the IC50 in data set [2] worked out at 230 nM; in data set [3], 0.072 nM. Besides, the Kd on hFAP (M39-A757) worked out at 0.062 nM. In addition, in the data set “Kinetic solubility”, the solubility worked out at 4.5 µM (≈ 2.01 µg/mL). In data set [4], this compound showed a microsomal CLint of 170 µL/min/mg.

Values taken from patent US20230312550A1, “N-(2-(4-CYANOTHIAZOLIDIN-3-YL)-2-OXOETHYL)-QUINOLINE-4-CARBOXAMIDES” (AstraZeneca AB, priority 2020, published 2023).
